From patent US20120022032A1, “CORTICOSTEROID COMPOSITIONS AND METHODS OF TREATMENTS THEREOF” (priority 2008, published 2012)
Converted amounts (≈) assume the structure as drawn. Where two headings read alike, the source gives them in different places.

Columns and labels:
Format in all cases: physicochemical
[1] = Effect of additives on MF solubility in 0.2 M Captisol solution; settings: aqueous with cosolvent or surfactant or cyclodextrin
Method: A stock solution of 0.2 M Captisol (SBE beta cyclodextrin) was prepared. Table 5 and FIG. 4 list the effect of various additives on the MF solubility of this solution: […]

[2] = MF solubility in cyclodextrin solutions; settings: 3 mM citrate buffer pH 4.5
Method: Compositions of mometasone furoate 6 mg/ml were prepared in duplicate with a 0.05, […], and 0.2 M of four different cyclodextrins: an unsubstituted gamma cyclodextrin, a sulfobutyl ether (SBE) beta cyclodextrin (Captisol), and two substituted SBE gamma cyclodextrins. Only 0.05 and 0.1M cyclodextrins were evaluated for the unsubstituted gamma cyclodextrin. All compositions were prepared in a 3 mM citrate buffer at a pH of 4.5. The compositions were placed on a roller mixer (Stuart Scientific SRT233 rpm rise/fall 16 mm) protected from light and mixed for about three days. After the three day equilibration, the compositions were filtered using a 0.22 micrometer PVDF syringe filter and analyzed by HPLC.

[3] = Micellar solubility determination of MF in 10% surfactant solutions in water; settings: for solubility: 10% w/w excipient solution in water, aqueous with cosolvent or surfactant or cyclodextrin, thermodynamic from solid
Method: To determine the solubility of MF in various solutions, various MF solutions are prepared by measuring each excipient into a beaker at a 10% w/w concentration. If needed, the excipients are melted using a water bath maintained at 65° C. for approximately 30 minutes. The composition is q.s. to 50 g with water and mixed with an overhead/lightening mixer. Approximately 50-60 mg of anhydrous mometasone furoate anhydrous is added into each mixture. The solutions are mixed at a low speed on a shaker (Eberbacher) for about 48 to about 72 hours. Approximately 20 mL of each suspension are removed and centrifuged at 1200 rpm for 12 minutes. Approximately 5 mL of the supernatant is filtered using a 0.22 μm syringe filter. A 1 mL sample is taken from each filtered sample, diluted, and assayed using an HPLC.

[4] = Microemulsion equilibrium solubility determination of mometasone furoate; settings: POLOXAMER 407-based microemulsion, aqueous with cosolvent or surfactant or cyclodextrin, thermodynamic from solid, microemulsion: ethyl laurate 5% w/w, POLOXAMER 407 10% w/w; read-out: MF Solubility
[5] = as above; settings: for concentration of mometasone furoate achieved: 5% MIGLYOL; for solubility at 72 h: SOLUTOL HS-15-based microemulsion, aqueous with cosolvent or surfactant or cyclodextrin, thermodynamic from solid
Method: The equilibrium solubility of mometasone furoate is determined in SOLUTOL® HS-15-based microemulsion composition composed of 20% of SOLUTOL® HS-15 with varying amounts of different oils (FIG. 2, Table 2). An excess amount of the drug is added in the solutions after water had been added. The vials is shaken over a 72 hour period. The solutions is centrifuged and filtered at various time intervals prior to analysis of the samples by HPLC. The drug solubility ranged from 300 mcg/ml to 600 mcg/g. Alternative oils are also explored (Table 3).
The concentration was ˜519 mcg/ml in a similar composition where PBS was replaced with water. To achieve a concentration of exactly 500 mcg/ml, roughly 5 mg of the drug was weighed and added to a mixture of 2 g of SOLUTOL® HS-15 and 0.5 g of MIGLYOL® 812, that was previously mixed using a magnetic stir bar. After the drug was dissolved in the pre-concentrate, 7.5 g of distilled water was added to the above mix to formulate a microemulsion of mometasone furoate.

[6] = MF solubility in cyclodextrin solutions; settings: 3 mM citrate buffer pH 4.5; remark: listed apart in the source
[7] = anhydrous MF, 10% w/w CREMOPHOR RH 40 (polyoxyl 40 hydrogenated castor oil) in water
[8] = anhydrous MF, 10% w/w SOLUTOL HS 15 (polyethylene glycol 660-12 hydroxystearate) in water
[9] = anhydrous MF, 10% w/w TWEEN 80 (polysorbate 80) in water

solubility ([1]; 0.2 M Captisol + 0.01% w/v Polysorbate 80): 235 µg/mL
solubility ([1]; 0.2 M Captisol + 0.02% w/v Benzalkonium Chloride): 243 µg/mL
solubility ([1]; 0.2 M Captisol + 0.1% w/v HPMC): 258 µg/mL
solubility ([1]; 0.2 M Captisol + 0.1% w/v Na-CMC): 242 µg/mL
solubility ([1]; 0.2 M Captisol + 0.1% w/v PVP-30): 290 µg/mL
solubility ([1]; 0.2 M Captisol + 1% v/v EtOH): 236 µg/mL
solubility ([1]; 0.2 M Captisol + 2.1% w/v Glycerin): 220 µg/mL
solubility ([1]; 0.2 M Captisol + 10% v/v EtOH): 121 µg/mL
solubility ([1]; 0.2 M Captisol + 10% w/v Propylene Glycol): 107 µg/mL
Concentration of MF in solutions with cyclodextrins ([2]; Captisol (SBE beta-CD) 0.05M, three day equilibration): 84 µg/mL
Concentration of MF in solutions with cyclodextrins ([2]; Captisol (SBE beta-CD) 0.2M): 261 µg/mL
Concentration of MF in solutions with cyclodextrins ([2]; SBE(6.1) gamma-CD 0.05M): 262 µg/mL
Concentration of MF in solutions with cyclodextrins ([2]; SBE(6.1) gamma-CD 0.2M): 1840 µg/mL
Concentration of MF in solutions with cyclodextrins ([2]; SBE(6.2) gamma-CD 0.05M): 250 µg/mL
Concentration of MF in solutions with cyclodextrins ([2]; SBE(6.2) gamma-CD 0.2M): 1940 µg/mL
Concentration of MF in solutions with cyclodextrins ([2]; unsubstituted gamma-CD 0.05M): 117 µg/mL
Concentration of MF in solutions with cyclodextrins ([2]; unsubstituted gamma-CD 0.1M): 249 µg/mL
solubility ([3]; 10% Vitamin E TPGS in water): ~500 µg/mL (≈ 959 µM)
solubility [3, 7]: 180 to 200 µg/mL (≈ 345 to 384 µM)
solubility ([3]; anhydrous MF, 10% w/w LUTROL F127 (poloxamer 407) in water): 27 µg/mL (≈ 51.8 µM)
solubility [3, 8]: 180 to 200 µg/mL (≈ 345 to 384 µM)
solubility [3, 9]: 180 to 200 µg/mL (≈ 345 to 384 µM)
solubility ([3]; anhydrous MF, 10% w/w Vitamin E TPGS (d-α tocopheryl PEG 1000 succinate) in water): 499 µg/mL (≈ 957 µM)
solubility ([3]; solutions with 10% polyoxamers): < 30 µg/mL
solubility ([3]; solutions with 10% polyvinylpyrrolidones): < 30 µg/mL
MF Solubility [3, 7]: 189 µg/mL
MF Solubility [3, 8]: 184 µg/mL
MF Solubility [3, 9]: 199 µg/mL
solubility at 72 h [4]: 90 µg/mL (≈ 173 µM)
concentration of mometasone furoate achieved ([5]; 20% w/w SOLUTOL HS-15, 75% phosphate buffer system (PBS)): 538 µg/mL
concentration of mometasone furoate achieved ([5]; 20% w/w SOLUTOL HS-15, PBS replaced with water): ~519 µg/mL
solubility at 72 h ([5]; 20% SOLUTOL HS-15 microemulsions with varying amounts of different oils, 72 hour shaking, read-out: drug solubility (equilibrium)): 300 to 600 µg/mL (≈ 575 to 1150 µM)
solubility at 72 h ([5]; microemulsion Example 1: MIGLYOL 812 4% w/w, SOLUTOL HS 15 20% w/w, read-out: Solubilized MF): 502 µg/mL (≈ 963 µM)
solubility at 72 h ([5]; microemulsion Example 2: MIGLYOL 812 5% w/w, SOLUTOL HS 15 20% w/w, read-out: Solubilized MF): 538 µg/mL (≈ 1030 µM)
solubility at 72 h ([5]; microemulsion Example 4: MIGLYOL 840 4% w/w, SOLUTOL HS 15 20% w/w, read-out: Solubilized MF): 540 µg/mL (≈ 1040 µM)
solubility at 72 h ([5]; microemulsion Example 5: CAPRYOL 3% w/w, SOLUTOL HS 15 20% w/w, read-out: Solubilized MF): 422 µg/mL (≈ 809 µM)
solubility at 72 h ([5]; microemulsion Example 6: corn oil 3% w/w, SOLUTOL HS 15 20% w/w, read-out: Solubilized MF): 408 µg/mL (≈ 782 µM)
solubility at 72 h ([5]; microemulsion Example 7: oleic acid 2% w/w, SOLUTOL HS 15 20% w/w, read-out: Solubilized MF): 323 µg/mL (≈ 619 µM)
solubility at 72 h ([5]; microemulsion Example 8: soybean oil 1% w/w, SOLUTOL HS 15 20% w/w, read-out: Solubilized MF): 375 µg/mL (≈ 719 µM)
solubility at 72 h ([5]; microemulsion Example 9: soybean oil 2% w/w, SOLUTOL HS 15 20% w/w, read-out: Solubilized MF): 397 µg/mL (≈ 761 µM)
solubility at 72 h ([5]; microemulsion: ethyl laurate 5% w/w, polyethylene glycol 660-12 hydroxystearate 20% w/w, read-out: MF Solubility): 540 µg/mL (≈ 1040 µM)
drug concentration determined by HPLC ([5]; about 5 mg drug dissolved in 2 g SOLUTOL HS-15 + 0.5 g MIGLYOL 812, then 7.5 g distilled water, target 500 mcg/ml): 500 µg/mL
Concentration of MF in solutions with cyclodextrins ([6]; Captisol (SBE beta-CD) 0.1M): 152 µg/mL
Concentration of MF in solutions with cyclodextrins ([6]; SBE(6.1) gamma-CD 0.1M): 626 µg/mL
Concentration of MF in solutions with cyclodextrins ([6]; SBE(6.2) gamma-CD 0.1M): 569 µg/mL
SMILES: C[C@@H]1C[C@H]2[C@@H]3CCC4=CC(=O)C=C[C@]4(C)[C@@]3(Cl)[C@@H](O)C[C@]2(C)[C@@]1(OC(=O)c1ccco1)C(=O)CCl [MF, mometasone furoate]
